# Results published in patent publication EP0714884A1, “A method for the production of a basic amino acid” (Ajinomoto Co., Inc., priority 1994, dated 1996).
# Experiment: Filterability evaluation: time period required for filtration through a membrane filter
# Format: physicochemical
# Settings: for filterability: neutral to acidic pH, result in words; for Filtration period of aqueous solution: L-arginine 5g/dl, 30°C, 1.4 ℓ, 2 x 10⁵ Pa, Millipore 0.22 µmGS membrane filter
# Procedure: The dried purified crystals were obtained by the three method described above were filtered under the condition shown below to compare the filterability. The pH was adjusted with 2N aqueous solution of HCl, and the filterability was evaluated by determining the time period required for the filtration.
# The dried purified crystals obtained by the method described above were filtered under conditions similar to those in Example 1 to evaluate the filterability.
SMILES,filterability,Filtration period of aqueous solution (pH 3),Filtration period of aqueous solution (pH 5) [s],Filtration period of aqueous solution (pH 7) [s],Filtration period of aqueous solution (pH 11) [s]
"N=C(N)NCCC[C@H](N)C(=O)O [UF method, L-arginine]",extremely poor filterability,Occlusion,2640,1400,850
N=C(N)NCCC[C@H](N)C(=O)O [Solution of purified crystals by LR-O method] [L-arginine],–,914 s,920,918,921
"N=C(N)NCCC[C@H](N)C(=O)O [Conventional method, L-arginine]",extremely poor filterability,Occlusion,8000,1510,1010
"N=C(N)NCCC[C@H](N)C(=O)O [LR-O method, L-arginine]",no deterioration of the filterability,920 s,880,910,930
